Tests used:
[1] = tested on: BDNF; test: BDNF mRNA expression by RT-qPCR in murine primary astrocytes; assay type: cell-based; conditions: primary mouse astrocytes, FIG. 6a
Description: (§1) Total RNA from cells was extracted using NucleoSpin RNA II extraction kit including DNAse treatment to digest genomic DNA (Macherey & Nagel, Düren, Germany).
(§2) RNA concentration was measured spectrophotometrically at a wavelength of 260 nm. Purity was assessed by the quotient 260/280 nm.
(§3) 250 ng of cell-derived mRNA were reverse transcribed into complementary DNA using moloney murine leukaemia virus (M-MLV) reverse transcriptase, 5× M-MLV buffer, deoxy-NTPs, random primers and RNasin (reagents from Promega, Mannheim, Germany) at 37° C. for 60 min. In order to control for genomic DNA contaminations, RNA was additionally transcribed in the absence of M-MLV reverse transcriptase (RT minus control).
(§4) To measure gene expression, the transcribed cDNA was amplified by quantitative real-time PCR (Stratagen MX Pro, Agilent Technologies Sales & Services GmbH & Co. KG, Waldbronn, Germany) in a final volume of 25 μl with the specific primers in commercial Power SYBR Green Master Mix (Applied Biosystems, Foster City, USA). Expression values were normalized against 18SrRNA expression.
(§5) All PCR primers were purchased from Operon Biotechnologies (Köln, Germany). […]

[2] = tested on: TrkB; test: TrkB mRNA expression by RT-qPCR in murine primary neurons; assay type: cell-based; conditions: primary mouse neurons, FIG. 5b
Description: (§6) Primary neurons were isolated from brains of E15 mouse embryos.
as §1, §2, §3, §4, §5

[3] = tested on: CST nerve fibres of mice with spinal cord injury; test: Cortical spinal tract tracing (BDA-labelled nerve fibres) after spinal cord injury; assay type: in vivo, mouse; conditions: FIG. 4
Description: To anterogradely label the CST, 2 μl of biotinylated dextran amine (10% BDA) were then injected into the motor cortex. BDA-positive CST nerve fibres were visualized by 3,3′-diaminobenzidine staining and counted cranial and caudal to the lesion in serial sections and normalized to the number of labelled fibres in the dorsoventral diameter of the CST in cross sections at T4.
The bars in FIG. 2 represent the percentage of nerve fibres in the area between the end of the CST and the lesion centre (TE-LC) and in the area 0.1, 0.2 or 0.5 mm distal to the lesion centre (0.1, 0.2 or 0.5 mm from LC).
The potential for administration of the compound of Example 1(i) to mice to lead to regeneration of axonal fibres and bridging of the site of injury by reinnervation, following spinal cord injury, was examined. This involved tracking motor neurons by injection of BDA-labelled dextran into the motor cortex.

[4] = tested on: viable neurons at the site of spinal cord injury; test: Histochemical stainings of injured spinal cords for Nissl (viable neurons); assay type: in vivo, mouse; conditions: versus vehicle-treated animals; FIG. 8
Description: Animals were fixated as described above.
For staining of viable neurons the NeuroTrace® 500/525 green fluorescent Nissl stain (Invitrogen) was used. Briefly, after rehydration tissue slices were permeabilized in PBS containing 0.1% Triton X-100 for 10 minutes at room temperature. After washing NeuroTrace solution (100 fold diluted in PBS) was applied to the sections and incubated for 20 minutes at room temperature. After washing, samples were mounted for microscopy.
(§7) For measurement of signal intensity six sections per animal containing the lesion centre were analyzed. Micrographs were made in 15 rectangular boxes along the spinal cord covering the lesion and surrounding area. Using ImageJ software (NIH) pictures were converted into the 8-Bit grayscale and the signal intensity for each box was evaluated.

[5] = tested on: Balb/C mice with spinal cord contusion lesion; test: Spinal cord contusion injury, locomotor recovery scored with the Basso Mouse Scale (BMS); assay type: in vivo
From the text: In studies of spinal cord injury in mice, the recovery of the mice in the studies may be monitored and quantified using the Basso Mouse Scale (Basso D. M., et al., Journal of Neurotrauma, Volume 23, No. 5, 635-659 (2006), the entirety of which is hereby incorporated by reference). Using this method, each mouse in such studies may be awarded a score based on the criteria outlined in Table 1 and FIG. 1 of Basso et al., supra,
Spinal cord injury and cortical spinal tract (CST) tracing were performed as described in (Boato et al. 2010). […] A gelfoam patch containing 1 μM the compound of Example 1(i) was then placed on top of the perforated dura (only in the second experiment, see Example 3), the muscles were sutured and the back skin closed with wound clips. Recovery of function after SCI was determined by scoring the locomotor hindlimb performance in the open field with the BMS, a 0-9 rating system based on the BBB scale and specifically designed for the mouse (Basso D. M., et al., Journal of Neurotrauma, Volume 23, No. 5, 635-659 (2006)). Under blind conditions, investigator evaluated the mice over a 4-min time period daily. Before surgery, animals were acclimated to the open field and to handling to prevent fear and/or stress behaviours that could bias the locomotor assessment.

[6] = tested on: TrkB; test: Immunohistochemical stainings of injured spinal cords for TrkB; assay type: in vivo, mouse; conditions: 4 week treatment; area of injury and peri-lesional tissue; versus vehicle; FIG. 7
From the text: Animal tissues were fixated by transcardial perfusion with normal saline followed by ice-cold 4% paraformaldehyde in 0.1 M phosphate-buffered saline. After perfusion, spinal cords were dissected and post-fixed overnight in the same fixative. The next day, the tissues were embedded in Jung-Tissue Freezing Medium (Leica Microsystems Nussloh, Germany) and cut longitudinally along the horizontal plane (40 μm thickness) into six series using a freezing microtome.
For immunostaining, samples were preincubated with 10% normal goat serum dissolved in PBS containing 0.5% Triton X-100 for 30 minutes at room temperature (RT). Incubation with primary antibody (Santa Cruz) was carried out overnight at 4° C. Following repeated washing steps with PBS, secondary antibodies (Jackson ImmunoResearch Laboratories) were applied for 2 hours at RT. After removal of unbound antibodies, sections were mounted.
as §7, with “center” for “centre”, “greyscale” for “grayscale”

[7] = tested on: TrkB; test: TrkB mRNA expression by RT-qPCR in murine primary astrocytes; assay type: cell-based; conditions: primary mouse astrocytes, FIG. 6b
Description: as §1, §2, §3, §4, §5

[8] = tested on: BDNF; test: BDNF mRNA expression by RT-qPCR in murine primary neurons; assay type: cell-based; conditions: primary mouse neurons, FIG. 5a
Description: as §6, §1, §2, §3, §4, §5

Row | Structure (SMILES) | expression of BDNF ([1]; 10^−6M) | production of mRNA encoding TrkB [2] | number of BDA-labelled axons (CST nerve fibres) compared to controls [3] | Nissl positive cells (viable neurons) at the site of spinal cord injury [4] | Basso Mouse Scale score better than vehicle treated mice ([5]; Balb/C mice, treated once daily, versus vehicle, FIG. 1) | neurological deficits (Basso Mouse Score) compared to controls ([5]; Balb/C mice, treated once daily, day 2 and 3 and from day 9 until the end of the study, FIG. 1) | neurological outcome (BMS), difference between routes of administration ([5]; systemically (i.p.) versus gel placed at the site of injury, FIG. 2) | BMS subscore paw position of hindlimbs, recovery ([5]; versus vehicle treated mice, where almost completely absent, FIG. 3) | increase in BMS subscore paw position, statistical significance ([5]; versus vehicle, FIG. 3) | TrkB immunoreactivity (signal intensity) in spinal cord [6] | expression of TrkB ([7]; 10^−6M) | production of mRNA encoding BDNF [8] | effect of co-treatment with AT2R-antagonist on BDNF expression induced by the compound of Example 1(i) ([1]; co-treatment with Example 1(i)) | effect of AT2R-antagonist on TrkB mRNA increase induced by the compound of Example 1(i) ([2]; combination with Example 1(i)) | effect of co-treatment with AT2R-antagonist on TrkB expression induced by the compound of Example 1(i) ([7]; co-treatment with Example 1(i)) | effect of AT2R-antagonist on BDNF mRNA increase induced by the compound of Example 1(i) ([8]; combination with Example 1(i))
1 | CCCCOC(=O)NS(=O)(=O)c1sc(CC(C)C)cc1-c1ccc(Cn2ccnc2)cc1 [Example 1(i), N-Butyloxycarbonyl-3-(4-imidazol-1-ylmethylphenyl)-5-iso-butylthiophene-2-sulfonamide] | induced expression | significantly increased | significantly increased | significant increase | approximately 1.5 points | significantly reduced neurological deficits | no statistically significant difference | continuous recovery | statistically significant from day 7 until the end of the observational period | strongly increased | induced expression | significantly increased |  |  |  | 
2 | Cc1cc(Cn2cnc3c2C[C@@H](C(=O)O)N(C(=O)C(c2ccccc2)c2ccccc2)C3)ccc1N(C)C [PD123319, reference compound] |  |  |  |  |  |  |  |  |  |  |  |  | abrogated | completely blocked | abrogated | completely blocked

Reference: patent publication US8835471B2, “Use of angiotensin II agonists” (Vicore Pharma AB, priority 2010, dated 2014)
